The values below come from patent US8629084B2, “Iodine-phenyl-substituted cyclic cetoenols” (Bayer CropScience AG, priority 2004, dated 2014).

Data set [1] in a line: logP determination by HPLC on reversed-phase column (C18), EEC Directive 79/831 Annex V.A8. The class given is physicochemical. To be noted: for log P: value in preparation example text. On the procedure:
• The logP values given in the Tables and Preparation Examples above are determined in accordance with EEC Directive 79/831 Annex V.A8 by HPLC (High Performance Liquid Chromatography) on a reversed-phase column (C18). Temperature: 43° C.
The determination is carried out in the acidic range at pH 2.3 using the mobile phases 0.1% aqueous phosphoric acid and acetonitrile; linear gradient from 10% acetonitrile to 95% acetonitrile. […]
Calibration is carried out using unbranched alkan-2-ones (having 3 to 16 carbon atoms) with known logP values (determination of the logP values by the retention times using linear interpolation between two successive alkanones).

Data set [2] has as its system cereal. The data set can be described thus: Herbicidal post-emergence action with use of safeners (Example G): container trials with cereal in a greenhouse, mefenpyr 1 day prior to herbicide application. As to conditions: without safener. Format: in vivo. On the procedure: Herbicidal Post-Emergence Action
Seeds of monocotyledonous and dicotyledonous weed and crop plants are placed into sandy loam in wood fiber pots or in plastic pots, covered with soil and cultivated in a greenhouse, during the vegetation period also outdoors outside of the greenhouse, under good growth conditions. Two to three weeks after sowing, the test plants are treated at the one- to three-leaf stage. The test compounds, formulated as wettable powders (WP) or liquid (EC), are, in various dosages at a water application rate of 300 l/ha (converted), with wetting agent (0.2 to 0.3%) added, sprayed onto the plants and the surface of the soil. […]
If it is additionally to be tested as to whether safeners can improve the plant compatibility of test substances in the case of crop plants, the following options are used for applying the safener: • seeds of the crop plants are, before sowing, dressed with the safener substance (the amount of safener stated in percent, based on the weight of the seed) • before the application of the test substances, the crop plants are sprayed with the safener at a certain application rate per hectare (usually 1 day before the application of the test substances) • the safener is applied together with the test substance as a tank mix (the amount of safener is stated in g/ha or as a ratio, based on the herbicide).
By comparing the effect of test substances on crop plants without or with safener treatment, it is possible to assess the effect of the safener substance.
Container Trials with Cereal in a Greenhouse
Mefenpyr 1 day prior to herbicide application

In data set [3] the test system is brown plant hopper (Nilaparvata lugens). The experiment in a line: Nilaparvata lugens test (hydroponic treatment). As to conditions: concentration of 20 ppm. The class given is in vivo. As for the experimental part:
Nilaparvata Lugens Test (Hydroponic Treatment)
Solvents: 78 parts by weight of acetone • • 1.5 parts by weight of dimethylformamide
Emulsifier: 0.5 part by weight of alkylaryl polyglycol ether
To produce a suitable preparation of active compound, 1 part by weight of active compound is mixed with the stated amounts of solvents and emulsifier, and the concentrate is diluted with emulsifier-containing water to the desired concentration.
The active compound preparation is pipetted into water. The stated concentration refers to the amount of active compound per volume unit of water (mg/l=ppm). After the desired period of time, the water is infected with the brown plant hopper (Nilaparvata lugens).
After the desired period of time, the effect in % is determined. 100% means that all plant hoppers have been killed; 0% means that none of the plant hoppers have been killed.

[4] abbreviates: compounds of formula (I-2-b), HPLC reversed-phase C18, 43° C., acidic range pH 2.3, 0.1% aqueous phosphoric acid/acetonitrile.
Where [5] appears, read: compounds of formula (I-2-a), HPLC reversed-phase C18, 43° C., acidic range pH 2.3, 0.1% aqueous phosphoric acid/acetonitrile.
Where [6] appears, read: HPLC, reversed-phase C18, 43° C., acidic range pH 2.3 (0.1% aqueous phosphoric acid/acetonitrile), table of formula (I-2-c).
[7] abbreviates: summer wheat, 25 g of a.i./ha, 10 days after application.
The mark [8] stands for this setting: summer wheat, 50 g of a.i./ha, 10 days after application.
Setting [9] is: summer wheat, 100 g of a.i./ha, 10 days after application.
[10] abbreviates: HPLC, reversed-phase C18, 43° C., acidic range pH 2.3 (0.1% aqueous phosphoric acid/acetonitrile).

One may read the logP as the decadic logarithm of the partition coefficient of the neutral form, usually between octanol and water. A lower logP goes with a more hydrophilic compound. Regarding `COC1CCC2(CC1)OC(=O)C(c1cc(C)ccc1I)=C2OC(=O)C(C)(C)C` (single isomer, unassigned) [Example I-2-b-7], the logP in data set [1] (setting [4]) is listed as 4.24.
In turn, `CCc1cc(I)cc(C)c1C1=C(O)C2(CCCC2)OC1=O` [I-2-a-8] returned a log partition coefficient (logP) in data set [1] (setting [5]) of 3.00.
On to `COC1CCC2(CC1)OC(=O)C(c1ccccc1I)=C2OC(=O)OC(C)C` (stereo not shown) [I-2-c-2], for which the logP in data set [1] (setting [6]) came to 3.54.
In turn, `CCc1cc(I)cc(C)c1C1=C(OC(=O)C(C)C)C(C)(C)OC1=O` [I-2-b-8] showed a logP in data set [1] (setting [4]) of 4.72.
Consider `COC1CCC2(CC1)OC(=O)C(c1cc(C)ccc1I)=C2O` (stereo not shown) [Example I-2-a-4], for which the log partition coefficient (logP) in data set [1] (setting [5]) came to 2.19.
For the compound `Cc1cc(C)c(C2=C(O)C3(CCC(C)CC3)NC2=O)c(I)c1` (stereo not shown) [Example I-1-a-3], the “Summer wheat observed (%)” value in data set [2] (summer wheat, 12.5 g of a.i./ha, 10 days after application) came to 10%; in data set [2] (setting [7]), 20%; in data set [2] (setting [8]), 30%; in data set [2] (setting [9]) it was 40%.
In turn, `Cc1ccc(I)c(C2=C(OC(=O)C(C)(C)C)C3(CCCC3)OC2=O)c1` [Example I-2-b-5] displayed a lipophilicity (logP) in data set [1] (setting [4]) of 4.68.
In data set [1] (setting [4]), `COC1CCC2(CC1)OC(=O)C(c1c(C)cc(I)cc1C)=C2OC(=O)C(C)(C)C` (single isomer, unassigned) [Example I-2-b-12] registered a logP of 5.21.
By log P is commonly meant the decadic logarithm of the partition coefficient of the neutral form, usually between octanol and water. A higher log P goes with a more lipophilic compound. Consider `CC(C)OC(=O)OC1=C(c2ccccc2I)C(=O)OC1(C)C` [Example I-2-c-1], for which the “log P” value in data set [1] (setting [10]) turned out to be 3.47.
The same measure, in the same setting: to `CC1(C)OC(=O)C(c2ccccc2I)=C1O` [Example I-2-a-1] belongs 1.80.
In data set [1] (setting [6]), `CCc1cc(I)cc(C)c1C1=C(OC(=O)OC(C)C)C2(CCOCC2)OC1=O` [I-2-c-5] came in with a lipophilicity (logP) of 4.41.
`CCOC(=O)OC1=C(c2c(C)cc(I)cc2CC)C(=O)NC12CCC(OC)CC2` (stereo not shown) [Example I-1-c-1]: the “Summer wheat observed (%)” value in data set [2] (the 20th table, summer wheat, 12.5 g of a.i./ha, 10 days after application) amounted to 50%.
In the case of `CC(C)C(=O)OC1=C(c2ccccc2I)C(=O)OC1(C)C` [Example I-2-b-1], in data set [1] (setting [10]), the “log P” value is reported as 3.53.
In data set [1] (setting [4]), `Cc1cc(I)cc(C)c1C1=C(OC(=O)C(C)(C)C)C2(CCCC2)OC1=O` [Example I-2-b-11] came in with a log partition coefficient (logP) of 5.26.
In data set [1] (setting [5]), `CCc1cc(I)cc(C)c1C1=C(O)C2(CCC(OC)CC2)OC1=O` (stereo not shown) [Example I-2-a-6] gave a lipophilicity (logP) of 2.92.
`COC1CCC2(CC1)OC(=O)C(c1ccccc1I)=C2OC(=O)C(C)(C)C` (stereo not shown) [Example I-2-b-2] returned a lipophilicity (logP) in data set [1] (setting [4]) of 3.95.
In data set [1] (setting [4]), `CCc1cc(I)cc(C)c1C1=C(OC(=O)C(C)C)C2(CCC(OC)CC2)OC1=O` (stereo not shown) [Example I-2-b-10] returned a lipophilicity (logP) of 4.79. Besides, the “Summer wheat observed (%)” value in data set [2] (setting [7]) worked out at 15%; in data set [2] (summer wheat, 25 g of a.i./ha, 28 days after application), 25%; in data set [2] (setting [8]), 30%; in data set [2] (summer wheat, 50 g of a.i./ha, 28 days after application), 40%; in data set [2] (setting [9]) it was 50%; in data set [2] (summer wheat, 100 g of a.i./ha, 28 days after application), 50%. Moreover, the “Summer wheat observed (%)” value in data set [2] (summer wheat, 200 g of a.i./ha, 10 days after application) is reported as 70%; in data set [2] (summer wheat, 200 g of a.i./ha, 28 days after application) it was 75%; in data set [2] (the 21st table second column (also headed Summer wheat), 25 g of a.i./ha, 10 days after application), 60%; in data set [2] (the 21st table second column (also headed Summer wheat), 50 g of a.i./ha, 10 days after application) it was 65%.
Compound `CCc1cc(I)cc(C)c1C1=C(O)C2(CCOCC2)OC1=O` [Example I-2-a-5] yielded a lipophilicity (logP) in data set [1] (setting [5]) of 2.63.
Regarding `Cc1ccc(I)c(C2=C(O)C3(CCCC3)OC2=O)c1` [I-2-a-3], the lipophilicity (logP) in data set [1] (setting [5]) came out at 2.51.
Regarding `CC(C)(C)C(=O)OC1=C(c2ccccc2I)C(=O)OC1(C)C` [Example I-2-b-4], in data set [1] (setting [4]), the logP was found to be 3.87.
Compound `COC1CCC2(CC1)OC(=O)C(c1c(C)cc(I)cc1C)=C2O` (stereo not shown) [Example I-2-a-9] had a logP in data set [1] (setting [5]) of 2.94.
`CCc1cc(I)cc(C)c1C1=C(OC(=O)C(C)C)C2(CCOCC2)OC1=O` [Example I-2-b-9] showed a log partition coefficient (logP) in data set [1] (setting [4]) of 4.42.
Take `CCc1cc(I)cc(C)c1C1=C(OC(=O)OC(C)C)C2(CCC(OC)CC2)OC1=O` (stereo not shown) [I-2-c-4]: the lipophilicity (logP) in data set [1] (setting [6]) was 4.77.
In data set [1] (setting [4]), `COC1CCC2(CC1)OC(=O)C(c1cc(C)ccc1I)=C2OC(=O)C(C)(C)C` (single isomer, unassigned) [Example I-2-b-6] yielded a logP of 4.57.
On the same count and under the same terms, the result for `COC1CCC2(CC1)OC(=O)C(c1c(C)cc(I)cc1C)=C2OC(=O)C(C)(C)C` (single isomer, unassigned) [Example I-2-b-13] reads 4.9.
As for `CCc1cc(I)cc(C)c1C1=C(O)C(C)(C)OC1=O` [I-2-a-7], in data set [1] (setting [5]), the logP came out at 2.81.
Take `COC1CCC2(CC1)OC(=O)C(c1ccccc1I)=C2O` (stereo not shown) [Example I-2-a-2]: the logP in data set [1] (setting [5]) worked out at 1.92. Besides, in data set [3], the “efficacy (plant hoppers killed)” value is on record as ≥ 80%.
Turning to `CCc1cc(I)cc(C)c1C1=C(OC(=O)OC(C)C)C(C)(C)OC1=O` [I-2-c-3], the lipophilicity (logP) in data set [1] (setting [6]) is listed as 4.66.
In data set [1] (setting [4]), `COC1CCC2(CC1)OC(=O)C(c1ccccc1I)=C2OC(=O)C(C)C` (stereo not shown) [Example I-2-b-3] displayed a logP of 3.6.
